Results reported in ChEMBL document CHEMBL5584255, “Synthesis and antibacterial medicinal evaluation of carbothioamido hydrazonyl thiazolylquinolone with multitargeting antimicrobial potential to combat increasingly global resistance” (Eur J Med Chem, 2024).
In brackets after ≈: the same amount, converted by molar mass. Activity calls are given as the source filed them. The rule behind the calls is not given here.

Assays:
Type in all cases: functional
Aspergillus fumigatus = experiment: Antifungal activity against Aspergillus fumigatus
Escherichia coli [1] = experiment: Antibacterial activity against drug-resistant Escherichia coli by microbroth dilution method
Klebsiella pneumoniae = experiment: Antibacterial activity against Klebsiella pneumoniae by microbroth dilution method
Candida parapsilosis = experiment: Antifungal activity against Candida parapsilosis ATCC 22019; settings: Lodderomyces parapsilosis
Staphylococcus aureus [2] = experiment: Antibacterial activity against drug-resistant Staphylococcus aureus by microbroth dilution method
Pseudomonas aeruginosa [3] = experiment: Antibacterial activity against Pseudomonas aeruginosa by microbroth dilution method
Staphylococcus aureus [4] = experiment: Antibacterial activity against Staphylococcus aureus ATCC 29213 by microbroth dilution method
Staphylococcus aureus [5] = experiment: Antibacterial activity against methicillin-resistant Staphylococcus aureus N315 by microbroth dilution method
Pseudomonas aeruginosa [6] = experiment: Antibacterial activity against Pseudomonas aeruginosa ATCC 27853 by microbroth dilution method
Candida albicans [7] = experiment: Antifungal activity against drug-resistant Candida albicans
Staphylococcus aureus [8] = experiment: Antibacterial activity against Staphylococcus aureus ATCC 25923 by microbroth dilution method
Acinetobacter baumannii = experiment: Antibacterial activity against Acinetobacter baumannii by microbroth dilution method
Candida albicans [9] = experiment: Antifungal activity against Candida albicans ATCC 90023
Enterococcus faecalis = experiment: Antibacterial activity against drug-resistant Enterococcus faecalis by microbroth dilution method
Candida tropicalis = experiment: Antifungal activity against drug-resistant Candida tropicalis
Escherichia coli [10] = experiment: Antibacterial activity against Escherichia coli ATCC 25922 by microbroth dilution method
Staphylococcus aureus [11] = experiment: Induction of resistance development in Staphylococcus aureus measured after 4 passages

Row | SMILES | MIC (Aspergillus fumigatus) [µM] | MIC (Escherichia coli [1]) [µM] | MIC (Klebsiella pneumoniae) [µM] | MIC (Candida parapsilosis) [µM] | MIC (Staphylococcus aureus [2]) [µM] | MIC (Pseudomonas aeruginosa [3]) [µM] | MIC (Staphylococcus aureus [4]) [µM] | MIC (Staphylococcus aureus [5]) [µM] | MIC (Pseudomonas aeruginosa [6]) [µM] | MIC (Candida albicans [7]) [µM] | MIC (Staphylococcus aureus [8]) [µM] | MIC (Acinetobacter baumannii) [µM] | MIC (Candida albicans [9]) [µM] | MIC (Enterococcus faecalis) [µM] | MIC (Candida tropicalis) [µM] | MIC (Escherichia coli [10]) [µM] | Activity (Staphylococcus aureus [11])
1 | C/C(Cn1cc(-c2csc(C)n2)c(=O)c2cc(F)c(F)cc21)=N\NC(N)=S | 1260 (≈ 513 µg/mL) | 1260 (≈ 513 µg/mL) | 1260 (≈ 513 µg/mL) | 1260 (≈ 513 µg/mL) | 1260 (≈ 513 µg/mL) | 314 (≈ 128 µg/mL) | 1260 (≈ 513 µg/mL) | 1260 (≈ 513 µg/mL) | 314 (≈ 128 µg/mL) | 1260 (≈ 513 µg/mL) | 1260 (≈ 513 µg/mL) | 314 (≈ 128 µg/mL) | 1260 (≈ 513 µg/mL) | 629 (≈ 256 µg/mL) | 1260 (≈ 513 µg/mL) | 1260 (≈ 513 µg/mL) | 
2 | CCn1cc(C(=O)O)c(=O)c2cc(F)c(N3CCNCC3)cc21 [NORFLOXACIN] |  | 1600 (≈ 512 µg/mL) | 802 (≈ 256 µg/mL) |  | 25 (≈ 7.98 µg/mL) | 1600 (≈ 512 µg/mL) | 3 (≈ 0.958 µg/mL) | 25 (≈ 7.98 µg/mL) | 50 (≈ 16 µg/mL) |  | 2 (≈ 0.639 µg/mL) | 802 (≈ 256 µg/mL) |  | 802 (≈ 256 µg/mL) |  | 25 (≈ 7.98 µg/mL) | inactive
3 | Nc1nc(-c2c[nH]c3c(F)cc(F)cc3c2=O)cs1 | 459 (≈ 128 µg/mL) | 459 (≈ 128 µg/mL) | 459 (≈ 128 µg/mL) | 459 (≈ 128 µg/mL) | 918 (≈ 256 µg/mL) | 459 (≈ 128 µg/mL) | 918 (≈ 256 µg/mL) | 459 (≈ 128 µg/mL) | 229 (≈ 64 µg/mL) | 115 (≈ 32.1 µg/mL) | 459 (≈ 128 µg/mL) | 459 (≈ 128 µg/mL) | 115 (≈ 32.1 µg/mL) | 229 (≈ 64 µg/mL) | 229 (≈ 64 µg/mL) | 459 (≈ 128 µg/mL) | 
4 | C/C(Cn1cc(-c2csc(N)n2)c(=O)c2cc(F)c(Cl)cc21)=N\O | 699 (≈ 256 µg/mL) | 350 (≈ 128 µg/mL) | 699 (≈ 256 µg/mL) | 44 (≈ 16.1 µg/mL) | 44 (≈ 16.1 µg/mL) | 87 (≈ 31.9 µg/mL) | 44 (≈ 16.1 µg/mL) | 350 (≈ 128 µg/mL) | 44 (≈ 16.1 µg/mL) | 87 (≈ 31.9 µg/mL) | 44 (≈ 16.1 µg/mL) | 350 (≈ 128 µg/mL) | 44 (≈ 16.1 µg/mL) | 350 (≈ 128 µg/mL) | 699 (≈ 256 µg/mL) | 22 (≈ 8.07 µg/mL) | 
5 | CCOC(=O)c1cn(C/C(C)=N/NC(N)=S)c2cc(F)c(F)cc2c1=O | 670 (≈ 256 µg/mL) | 670 (≈ 256 µg/mL) | 670 (≈ 256 µg/mL) | 335 (≈ 128 µg/mL) | 670 (≈ 256 µg/mL) | 670 (≈ 256 µg/mL) | 335 (≈ 128 µg/mL) | 1340 (≈ 512 µg/mL) | 335 (≈ 128 µg/mL) | 1340 (≈ 512 µg/mL) | 670 (≈ 256 µg/mL) | 335 (≈ 128 µg/mL) | 670 (≈ 256 µg/mL) | 335 (≈ 128 µg/mL) | 670 (≈ 256 µg/mL) | 670 (≈ 256 µg/mL) | 
6 | Cc1nc(-c2c[nH]c3c(F)cc(F)cc3c2=O)cs1 | 921 (≈ 256 µg/mL) | 1840 (≈ 513 µg/mL) | 460 (≈ 128 µg/mL) | 921 (≈ 256 µg/mL) | 921 (≈ 256 µg/mL) | 1840 (≈ 513 µg/mL) | 460 (≈ 128 µg/mL) | 460 (≈ 128 µg/mL) | 1840 (≈ 513 µg/mL) | 1840 (≈ 513 µg/mL) | 460 (≈ 128 µg/mL) | 921 (≈ 256 µg/mL) | 460 (≈ 128 µg/mL) | 460 (≈ 128 µg/mL) | 921 (≈ 256 µg/mL) | 921 (≈ 256 µg/mL) | 
7 | C/C(Cn1cc(-c2csc(C)n2)c(=O)c2cc(F)cc(F)c21)=N\NC(N)=S | 629 (≈ 256 µg/mL) | 1260 (≈ 513 µg/mL) | 314 (≈ 128 µg/mL) | 157 (≈ 64 µg/mL) | 1260 (≈ 513 µg/mL) | 629 (≈ 256 µg/mL) | 629 (≈ 256 µg/mL) | 1260 (≈ 513 µg/mL) | 629 (≈ 256 µg/mL) | 1260 (≈ 513 µg/mL) | 1260 (≈ 513 µg/mL) | 629 (≈ 256 µg/mL) | 1260 (≈ 513 µg/mL) | 1260 (≈ 513 µg/mL) | 1260 (≈ 513 µg/mL) | 1260 (≈ 513 µg/mL) | 
8 | CCOC(=O)c1cn(C/C(C)=N/NC(N)=S)c2cc(Cl)c(F)cc2c1=O | 322 (≈ 128 µg/mL) | 1290 (≈ 513 µg/mL) | 643 (≈ 256 µg/mL) | 161 (≈ 64.2 µg/mL) | 643 (≈ 256 µg/mL) | 322 (≈ 128 µg/mL) | 643 (≈ 256 µg/mL) | 643 (≈ 256 µg/mL) | 322 (≈ 128 µg/mL) | 1290 (≈ 513 µg/mL) | 643 (≈ 256 µg/mL) | 643 (≈ 256 µg/mL) | 643 (≈ 256 µg/mL) | 643 (≈ 256 µg/mL) | 643 (≈ 256 µg/mL) | 1290 (≈ 513 µg/mL) | 
